Among the data in the OligoGym collection are TLR7 signal (NF-kB luciferase) (% of resiquimod alone) and TLR8 potentiation (NF-kB luciferase) (fold of resiquimod alone) values, retold here.

HELM strings list units from the 5' end as sugar, base in round brackets, then linkage (d deoxyribose, r ribose, m 2'-O-methyl, p phosphodiester). [sp] = phosphorothioate linkage

Series [1] concerns the target CDKN2B-AS1. The series is described as follows: HEK293-TLR7, 100 nM ASO, then resiquimod.
Series [2] deals with CDKN2B-AS1. The series is described as follows: HEK293-TLR8, 100 nM ASO, then resiquimod.

The substance “RNA1{m(A)[sp].m(A)[sp].m(G)[sp].m(G)[sp].m(U)[sp].d(G)[sp].d(G)[sp].d(C)[sp].d(C)[sp].d(A)[sp].d(C)[sp].d(A)[sp].d(G)[sp].d(G)[sp].d(C)[sp].m(A)[sp].m(A)[sp].m(C)[sp].m(G)[sp].m(U)}$$$$” showed a TLR7 signal (NF-kB luciferase) (% of resiquimod alone) in series [1] of 57.9. For the same substance, the TLR8 potentiation (NF-kB luciferase) (fold of resiquimod alone) in series [2] turned out to be 0.58.

“RNA1{m(A)[sp].m(A)[sp].m(G)[sp].m(C)[sp].m(A)[sp].d(G)[sp].d(T)[sp].d(C)[sp].d(T)[sp].d(C)[sp].d(C)[sp].d(A)[sp].d(T)[sp].d(G)[sp].d(T)[sp].m(C)[sp].m(C)[sp].m(C)[sp].m(A)[sp].m(G)}$$$$” came in with a TLR7 signal (NF-kB luciferase) (% of resiquimod alone) in series [1] of 35.7. Moreover, the TLR8 potentiation (NF-kB luciferase) (fold of resiquimod alone) in series [2] came to 1.79.

Take “RNA1{m(G)[sp].m(U)[sp].m(C)[sp].m(U)[sp].m(C)[sp].d(T)[sp].d(A)[sp].d(C)[sp].d(T)[sp].d(G)[sp].d(T)[sp].d(T)[sp].d(A)[sp].d(C)[sp].d(C)[sp].m(U)[sp].m(C)[sp].m(U)[sp].m(G)[sp].m(A)}$$$$”: the TLR7 signal (NF-kB luciferase) (% of resiquimod alone) in series [1] was determined as 19.2. Further, the TLR8 potentiation (NF-kB luciferase) (fold of resiquimod alone) in series [2] amounted to 2.41.

In turn, “RNA1{m(C)[sp].m(A)[sp].m(G)[sp].m(U)[sp].m(G)[sp].d(T)[sp].d(T)[sp].d(T)[sp].d(T)[sp].d(T)[sp].d(A)[sp].d(A)[sp].d(T)[sp].d(T)[sp].d(T)[sp].m(U)[sp].m(G)[sp].m(U)[sp].m(A)[sp].m(G)}$$$$” showed a TLR7 signal (NF-kB luciferase) (% of resiquimod alone) in series [1] of 62.7. The TLR8 potentiation (NF-kB luciferase) (fold of resiquimod alone) in series [2] was 3.18.

In the case of “RNA1{m(G)[sp].m(A)[sp].m(U)[sp].m(U)[sp].m(A)[sp].d(A)[sp].d(A)[sp].d(A)[sp].d(C)[sp].d(A)[sp].d(G)[sp].d(A)[sp].d(T)[sp].d(T)[sp].d(A)[sp].m(A)[sp].m(U)[sp].m(A)[sp].m(C)[sp].m(A)}$$$$”, in series [1], the TLR7 signal (NF-kB luciferase) (% of resiquimod alone) was found to be 21.9. The TLR8 potentiation (NF-kB luciferase) (fold of resiquimod alone) in series [2] came out at 0.73.

With “RNA1{m(A)[sp].m(A)[sp].m(A)[sp].m(A)[sp].m(U)[sp].d(A)[sp].d(A)[sp].d(G)[sp].d(G)[sp].d(G)[sp].d(G)[sp].d(A)[sp].d(A)[sp].d(T)[sp].d(A)[sp].m(G)[sp].m(G)[sp].m(G)[sp].m(G)[sp].m(A)}$$$$”, in series [1], the TLR7 signal (NF-kB luciferase) (% of resiquimod alone) came out at 68.5. Besides, the TLR8 potentiation (NF-kB luciferase) (fold of resiquimod alone) in series [2] is 0.86.

As for “RNA1{m(U)[sp].m(C)[sp].m(U)[sp].m(C)[sp].m(C)[sp].d(A)[sp].d(T)[sp].d(G)[sp].d(T)[sp].d(C)[sp].d(C)[sp].d(C)[sp].d(A)[sp].d(G)[sp].d(G)[sp].m(C)[sp].m(C)[sp].m(U)[sp].m(C)[sp].m(C)}$$$$”, the TLR7 signal (NF-kB luciferase) (% of resiquimod alone) in series [1] was found to be 43.5. In series [2], the TLR8 potentiation (NF-kB luciferase) (fold of resiquimod alone) is 3.41.

“RNA1{m(A)[sp].m(G)[sp].m(C)[sp].m(A)[sp].m(G)[sp].d(T)[sp].d(C)[sp].d(T)[sp].d(C)[sp].d(C)[sp].d(A)[sp].d(T)[sp].d(G)[sp].d(T)[sp].d(C)[sp].m(C)[sp].m(C)[sp].m(A)[sp].m(G)[sp].m(G)}$$$$” gave a TLR7 signal (NF-kB luciferase) (% of resiquimod alone) in series [1] of 25.5. In series [2], the TLR8 potentiation (NF-kB luciferase) (fold of resiquimod alone) was found to be 2.81.

Take “RNA1{m(U)[sp].m(A)[sp].m(A)[sp].m(A)[sp].m(A)[sp].d(T)[sp].d(A)[sp].d(A)[sp].d(G)[sp].d(G)[sp].d(G)[sp].d(G)[sp].d(A)[sp].d(A)[sp].d(T)[sp].m(A)[sp].m(G)[sp].m(G)[sp].m(G)[sp].m(G)}$$$$”: the TLR7 signal (NF-kB luciferase) (% of resiquimod alone) in series [1] came out at 41. The TLR8 potentiation (NF-kB luciferase) (fold of resiquimod alone) in series [2] was found to be 1.28.

As for “RNA1{m(A)[sp].m(A)[sp].m(U)[sp].m(U)[sp].m(U)[sp].d(A)[sp].d(A)[sp].d(A)[sp].d(G)[sp].d(C)[sp].d(A)[sp].d(T)[sp].d(G)[sp].d(A)[sp].d(A)[sp].m(U)[sp].m(A)[sp].m(U)[sp].m(U)[sp].m(A)}$$$$”, the TLR7 signal (NF-kB luciferase) (% of resiquimod alone) in series [1] is 46.8. Besides, the TLR8 potentiation (NF-kB luciferase) (fold of resiquimod alone) in series [2] is 3.29.

On to “RNA1{m(G)[sp].m(G)[sp].m(U)[sp].m(G)[sp].m(G)[sp].d(C)[sp].d(C)[sp].d(A)[sp].d(C)[sp].d(A)[sp].d(G)[sp].d(G)[sp].d(C)[sp].d(A)[sp].d(A)[sp].m(C)[sp].m(G)[sp].m(U)[sp].m(C)[sp].m(A)}$$$$”, for which, in series [1], the TLR7 signal (NF-kB luciferase) (% of resiquimod alone) was 39.1. In addition, the TLR8 potentiation (NF-kB luciferase) (fold of resiquimod alone) in series [2] was determined as 0.8.

The substance “RNA1{m(G)[sp].m(G)[sp].m(A)[sp].m(C)[sp].m(A)[sp].d(C)[sp].d(T)[sp].d(T)[sp].d(A)[sp].d(G)[sp].d(C)[sp].d(T)[sp].d(G)[sp].d(T)[sp].d(T)[sp].m(C)[sp].m(C)[sp].m(U)[sp].m(C)[sp].m(G)}$$$$” showed a TLR7 signal (NF-kB luciferase) (% of resiquimod alone) in series [1] of 45.8. Further, the TLR8 potentiation (NF-kB luciferase) (fold of resiquimod alone) in series [2] worked out at 1.13.

In series [1], “RNA1{m(G)[sp].m(U)[sp].m(C)[sp].m(G)[sp].m(U)[sp].d(G)[sp].d(G)[sp].d(C)[sp].d(A)[sp].d(A)[sp].d(A)[sp].d(T)[sp].d(A)[sp].d(G)[sp].d(T)[sp].m(C)[sp].m(C)[sp].m(U)[sp].m(A)[sp].m(G)}$$$$” gave a TLR7 signal (NF-kB luciferase) (% of resiquimod alone) of 27.5. In addition, in series [2], the TLR8 potentiation (NF-kB luciferase) (fold of resiquimod alone) came to 2.12.
